Columns and labels:
[1] = Two-step dissolution / precipitation Fed Human in-vitro model (Fessif); assay type: physicochemical; conditions: thermodynamic from solid, final pH 5.0, 60min in FeSSGF pH3.0 + 120min in FeSSIF x3 pH5.0, 37°C, read-out: solubility (HPLC-UV dosage of supernatant), last measurement point
Procedure: (§1) ABX464 in its unique crystalline form and ABX464 :VA64 ASD (prepared according to example 1 above) were tested by using both Fasted and Fed Human in-vitro models (respectively named Fassif and Fessif models). These models simulate respectively fasted and fed state gastrointestinal fluids for dissolution testing.
(§2) For the Fed in-vitro model, 11.4mg of ABX464:VA64 ASD (4.0mg equivalent ABX464) were weighed in 7 different vials. In all vials, 1ml of FeSSGF pH3.0 solution pre-heated at 37°C were added. Suspension were then vortexed at 37°C. After 15min vortex, suspension of the first vial was centrifuged 5min at 18000 rpm and filtered under 0.45µm filter (Millex LCR filter ref. SLCR0.13NK) for HPLC-UV dosage of supernatant. After 30min vortex, suspension of the second vial was centrifuged 5min at 18000 rpm and filtered under 0.45µm filter (Millex LCR filter ref. SLCR0.13NK) for HPLC-UV dosage of supernatant. After 60min vortex, suspension of the third vial was centrifuged 5min at 18000 rpm and filtered under 0.45µm filter (Millex LCR filter ref. SLCR0.13NK) for HPLC-UV dosage of supernatant.
After 60min vortex, 0.5ml of FeSSIF x3 pH5.0 pre-heated at 37°C was added on other 4 vials. Suspension were then vortexed at 37°C. […]

[2] = Two-step dissolution / precipitation Fasted Human in-vitro model (Fassif); assay type: physicochemical; conditions: thermodynamic from solid, final pH = 6.5, 30min in FaSSGF pH1.2 + 120min in FaSSIF x2 pH6.5 / Sodium bicarbonate 90/10 v/v, 37°C, read-out: solubility (HPLC-UV dosage of supernatant), last measurement point
Procedure: as §1
as §2, with “the Fasted” for “the Fed”, “in 6” for “in 7”, “of FaSSGF pH1.2” for “of FeSSGF pH3.0”, “supernatant.” for “supernatant. After 60min vortex, suspension of the third vial was centrifuged 5min at 18000 rpm and filtered under 0.45µm filter (Millex LCR filter ref. SLCR0.13NK) for HPLC-UV dosage of supernatant.”
After 30min vortex, 1ml of FaSSIF x2 pH6.5 / Sodium bicarbonate 90/10 v/v pre-heated at 37°C was added on other 4 vials. Suspension were then vortexed at 37°C. After 15min vortex, suspension of the third vial was centrifuged 5min at 18000 rpm and filtered under 0.45µm filter (Millex LCR filter ref. SLCR0.13NK) for HPLC-UV dosage of supernatant. […]

FC(F)(F)Oc1ccc(Nc2ccc3cccc(Cl)c3n2)cc1 [ABX464, 8-Chloro-N-(4-(trifluoromethoxy)phenyl)quinolin-2-amine]
solubility at 120 min [1]: 508 µg/mL | solubility at 120 min [2]: 70 µg/mL

— EP3858336A1, “AMORPHOUS SOLID DISPERSION OF 8-CHLORO-N-(4-(TRIFLUOROMETHOXY)PHENYL)QUINOLIN-2-AMINE” (ABIVAX, priority 2020, dated 2021)
